Patent publication US20140024527A1, “HERBICIDAL PYRAZINONES” (E I DU DE NEMOURS AND COMPANY, priority 2011, published 2014)

Key:
Format in all cases: in vivo
[1] = tested on: pigweed (Amaranthus retroflexus); experiment: Test A preemergence; details: 0 to 100 scale, 0 no effect, 100 complete control, approx. 10 days
From the text: (§1) Seeds of barnyardgrass (Echinochloa crus-galli), large crabgrass (Digitaria sanguinalis), giant foxtail (Setaria faberii), morningglory (Ipomoea spp.), pigweed (Amaranthus retroflexus), velvetleaf (Abutilon theophrasti), wheat (Triticum aestivum) and corn (Zea mays) were planted into a blend of loam soil and sand and treated preemergence with a directed soil spray using test chemicals formulated in a non-phytotoxic solvent mixture which included a surfactant. At the same time these species were also treated with postemergence applications of test compounds formulated in the same manner. Plants ranged in height from 2 to 10 cm and were in the one- to two-leaf stage for the postemergence treatments. Treated plants and untreated controls were maintained in a greenhouse for approximately 10 days, after which time all treated plants were compared to untreated controls and visually evaluated for injury. Plant response ratings, summarized in Table A, are based on a 0 to 100 scale where 0 is no effect and 100 is complete control.

[2] = tested on: velvetleaf (Abutilon theophrasti); experiment: Test A preemergence; details: 0 to 100 scale, 0 no effect, 100 complete control, approx. 10 days
From the text: as §1

[3] = tested on: large crabgrass (Digitaria sanguinalis); experiment: Test A preemergence; details: 0 to 100 scale, 0 no effect, 100 complete control, approx. 10 days
From the text: as §1

[4] = tested on: wheat (Triticum aestivum); experiment: Test A preemergence; details: 0 to 100 scale, 0 no effect, 100 complete control, approx. 10 days
From the text: as §1

corn (Zea mays) [5] = experiment: Test A preemergence; details: 0 to 100 scale, 0 no effect, 100 complete control, approx. 10 days
From the text: as §1

[6] = tested on: giant foxtail (Setaria faberii); experiment: Test A preemergence; details: 0 to 100 scale, 0 no effect, 100 complete control, approx. 10 days
From the text: as §1

[7] = tested on: barnyardgrass (Echinochloa crus-galli); experiment: Test A preemergence; details: 0 to 100 scale, 0 no effect, 100 complete control, approx. 10 days
From the text: as §1

[8] = tested on: morningglory (Ipomoea spp.); experiment: Test A preemergence; details: 0 to 100 scale, 0 no effect, 100 complete control, approx. 10 days
From the text: as §1

[9] = tested on: pigweed (Amaranthus retroflexus); experiment: Test A postemergence; details: 0 to 100 scale, 0 no effect, 100 complete control, approx. 10 days
From the text: as §1

[10] = tested on: velvetleaf (Abutilon theophrasti); experiment: Test A postemergence; details: 0 to 100 scale, 0 no effect, 100 complete control, approx. 10 days
From the text: as §1

[11] = tested on: large crabgrass (Digitaria sanguinalis); experiment: Test A postemergence; details: 0 to 100 scale, 0 no effect, 100 complete control, approx. 10 days
From the text: as §1

[12] = tested on: wheat (Triticum aestivum); experiment: Test A postemergence; details: 0 to 100 scale, 0 no effect, 100 complete control, approx. 10 days
From the text: as §1

corn (Zea mays) [13] = experiment: Test A postemergence; details: 0 to 100 scale, 0 no effect, 100 complete control, approx. 10 days
From the text: as §1

[14] = tested on: giant foxtail (Setaria faberii); experiment: Test A postemergence; details: 0 to 100 scale, 0 no effect, 100 complete control, approx. 10 days
From the text: as §1

[15] = tested on: barnyardgrass (Echinochloa crus-galli); experiment: Test A postemergence; details: 0 to 100 scale, 0 no effect, 100 complete control, approx. 10 days
From the text: as §1

[16] = tested on: morningglory (Ipomoea spp.); experiment: Test A postemergence; details: 0 to 100 scale, 0 no effect, 100 complete control, approx. 10 days
From the text: as §1

rice (Oryza sativa) = experiment: Test B flooded paddy test; details: Flood, scale 0 to 100
From the text: (§2) Plant species in the flooded paddy test consisted of rice (Oryza sativa), umbrella sedge (Cyperus difformis), ducksalad (Heteranthera limosa) and barnyardgrass (Echinochloa crus-galli) grown to the 2-leaf stage for testing. At time of treatment, test pots were flooded to 3 cm above the soil surface, treated by application of test compounds directly to the paddy water, and then maintained at that water depth for the duration of the test. Treated plants and controls were maintained in a greenhouse for 13 to 15 days, after which time all species were compared to controls and visually evaluated. Plant response ratings, summarized in Table B, are based on a scale of 0 to 100 where 0 is no effect and 100 is complete control. A dash (-) response means no test result.

[17] = tested on: umbrella sedge (Cyperus difformis); experiment: Test B flooded paddy test; details: Flood, scale 0 to 100
From the text: as §2

[18] = tested on: ducksalad (Heteranthera limosa); experiment: Test B flooded paddy test; details: Flood, scale 0 to 100
From the text: as §2

[19] = tested on: barnyardgrass (Echinochloa crus-galli); experiment: Test B flooded paddy test; details: Flood
From the text: as §2

CCCCn1c(-c2ccccc2)cnc(C(=O)C2=C(O)CCCC2=O)c1=O [Compound 1, 1-butyl-3-[(2-hydroxy-6-oxo-1-cyclohexen-1-yl)carbonyl]-6-phenyl-2(1H)-pyrazinone]
0: Plant response rating, Wheat ([4]; 125 g ai/ha) | Plant response rating, Wheat ([4]; 500 g ai/ha) | Plant response rating, Corn (corn (Zea mays) [5]; 125 g ai/ha) | Plant response rating, Corn (corn (Zea mays) [5]; 500 g ai/ha) | Plant response rating, Foxtail, Giant ([6]; 125 g ai/ha) | Plant response rating, Barnyardgrass ([7]; 125 g ai/ha) | Plant response rating, Morningglory ([8]; 125 g ai/ha) | Plant response rating, Wheat ([12]; 125 g ai/ha) | Plant response rating, Wheat ([12]; 500 g ai/ha) | Plant response rating, Corn (corn (Zea mays) [13]; 125 g ai/ha)
85: Plant response rating, Rice (rice (Oryza sativa); 250 g ai/ha)
60: Plant response rating, Pigweed ([1]; 125 g ai/ha) | Plant response rating, Pigweed ([9]; 125 g ai/ha) | Plant response rating, Ducksalad ([18]; 62 g ai/ha) | Plant response rating, Barnyardgrass ([19]; 62 g ai/ha, scale 0 to 100)
40: Plant response rating, Crabgrass, Large ([3]; 500 g ai/ha) | Plant response rating, Foxtail, Giant ([14]; 500 g ai/ha) | Plant response rating, Morningglory ([16]; 125 g ai/ha)
95: Plant response rating, Sedge, Umbrella ([17]; 250 g ai/ha) | Plant response rating, Ducksalad ([18]; 250 g ai/ha)
30: Plant response rating, Foxtail, Giant ([6]; 500 g ai/ha)
100: Plant response rating, Pigweed ([1]; 500 g ai/ha) | Plant response rating, Velvetleaf ([2]; 500 g ai/ha) | Plant response rating, Pigweed ([9]; 500 g ai/ha) | Plant response rating, Velvetleaf ([10]; 125 g ai/ha) | Plant response rating, Velvetleaf ([10]; 500 g ai/ha) | Plant response rating, Morningglory ([16]; 500 g ai/ha)
80: Plant response rating, Barnyardgrass ([7]; 500 g ai/ha) | Plant response rating, Barnyardgrass ([15]; 500 g ai/ha) | Plant response rating, Barnyardgrass ([19]; 250 g ai/ha, scale 0 to 100 (0 no effect, 100 complete control))
10: Plant response rating, Crabgrass, Large ([3]; 125 g ai/ha) | Plant response rating, Crabgrass, Large ([11]; 125 g ai/ha) | Plant response rating, Corn (corn (Zea mays) [13]; 500 g ai/ha) | Plant response rating, Foxtail, Giant ([14]; 125 g ai/ha) | Plant response rating, Barnyardgrass ([15]; 125 g ai/ha)
50: Plant response rating, Velvetleaf ([2]; 125 g ai/ha) | Plant response rating, Crabgrass, Large ([11]; 500 g ai/ha)
70: Plant response rating, Morningglory ([8]; 500 g ai/ha) | Plant response rating, Rice (rice (Oryza sativa); 62 g ai/ha) | Plant response rating, Sedge, Umbrella ([17]; 62 g ai/ha)
